Assay in all cases: NCI tumour cell line growth inhibition, 48 h
Assay [1] concerns U-251.
In assay [2] the test system is HCC 2998.
Assay [3] has as its system KM12.
Assay [4] has as its system T47D.
Assay [5] concerns OVCAR-4.
The test system of assay [6] is HOP-62.
Assay [7] has as its system MOLT-4.
The subject of assay [8] is OVCAR-8.
The test system of assay [9] is RPMI-8226.
Assay [10] concerns NCI-H460.
Assay [11] concerns SK-MEL-5.
Assay [12] has as its system OVCAR-5.
Assay [13] deals with UACC-62.
The test system of assay [14] is ACHN.
The test system of assay [15] is SW-620.
In assay [16] the test system is MDA-N.
Assay [17] concerns K562.
The subject of assay [18] is HL-60.
Assay [19] concerns A498.

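Following 48 hours of exposure in 96-well plates, responses at five concentrations were used to interpolate endpoints linearly. Here, GI50 denotes the concentration required for 50% inhibition of growth.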 The source made the active and inactive calls. No stated cut-off is given here; in the data, active = GI50 up to about 1.1 µM and inactive = higher.

Turning to `Clc1cc(Cl)ncn1`, the GI50 in assay [1], in [2], in assay [3], in assay [4], in [5] and in [6] was > 100 µM (inactive) each time. Besides, the GI50 in [7] is > 100 µM (inactive); in [8], > 100 µM (inactive); in assay [9], 40.9 µM (inactive); in assay [10], > 100 µM (inactive); in [11], > 100 µM (inactive); in [12], > 100 µM (inactive). Besides, the GI50 in assay [13], in [14], in assay [15], in assay [16] and in [17] was > 100 µM (inactive) in each case.

As to `N#CCC12CC=CCC1=C(O)C(=O)c1ccc(O)cc12` (stereo not drawn), the GI50 in assay [1] is > 100 µM (inactive); in assay [2], > 100 µM (inactive); in [3], > 100 µM (inactive); in assay [4] it was > 100 µM (inactive); in assay [5], 52 µM (inactive); in assay [6], > 100 µM (inactive). For the same molecule, the GI50 in assay [18], in assay [7], in [8], in assay [9], in assay [10] and in assay [11] was > 100 µM (inactive) each time. In addition, the GI50 in [19], in assay [12], in [13], in [14], in assay [15] and in assay [16] was > 100 µM (inactive) each time. For the same molecule, the GI50 in assay [17] was > 100 µM (inactive).

`N/N=C1N=C(Cl)/C(=C/c2ccco2)N\1`: the GI50 in assay [1] is 47.9 µM (inactive); in [2], 27.6 µM (inactive); in assay [3] it was 28.2 µM (inactive); in [4], 40.4 µM (inactive); in assay [5] it was 31.6 µM (inactive); in assay [6], 59.2 µM (inactive). In addition, the GI50 in assay [18] is 21.9 µM (inactive); in assay [7], 11.9 µM (inactive); in assay [8], 44.5 µM (inactive); in assay [9], 16.8 µM (inactive); in assay [11], 34 µM (inactive); in assay [19], > 100 µM (inactive). For the same molecule, the GI50 in [12] was > 100 µM (inactive); in assay [14], 50.4 µM (inactive); in assay [15] it was 41.5 µM (inactive); in [16], 47.8 µM (inactive); in assay [17], 14.8 µM (inactive).

As to `COc1c(F)c(F)c(C(=O)/C=C2\Nc3ccccc3NC2=O)c(F)c1F`, the GI50 in assay [2] was > 10 µM (inactive); in [3], 8.22 µM (inactive); in assay [4], 4.67 µM (inactive); in assay [5], 2.48 µM (inactive); in assay [6] it was 4.41 µM (inactive); in assay [18] it was > 10 µM (inactive). In addition, the GI50 in assay [7] is > 10 µM (inactive); in assay [8], 3.79 µM (inactive); in assay [9], > 10 µM (inactive); in [11], 8.95 µM (inactive); in [13], > 10 µM (inactive); in [15], 8.38 µM (inactive). Also, the GI50 in assay [16] and in assay [17] was > 10 µM (inactive) throughout.

Consider `CN(C)Cc1cc(C(C)(C)C)cc(C2CCCCC2)c1O`, for which the GI50 was 14.4 µM (inactive) in assay [1]; 13.6 µM (inactive) in assay [3]; 3.58 µM (inactive) in [4]; 12.1 µM (inactive) in assay [5]; 18 µM (inactive) in assay [6]; 18.2 µM (inactive) in assay [18]. Also, the GI50 in assay [7] is 10.8 µM (inactive); in assay [8], 13 µM (inactive); in assay [9], < 0.01 µM (active); in assay [10] it was 19.1 µM (inactive); in [11], 14.4 µM (inactive); in assay [12], 17 µM (inactive). The GI50 in assay [13] was 16.1 µM (inactive); in assay [14] it was 15.5 µM (inactive); in [15], 16.6 µM (inactive); in [17], 12.2 µM (inactive).

`CCOC(=O)NC(NC1=NCCS1)(C(=O)OCC)C(F)(F)F` (stereo not drawn): the GI50 in assay [1], in assay [2], in [3], in assay [4], in [5] and in [6] was > 100 µM (inactive) throughout. For the same molecule, the GI50 in assay [18], in assay [7], in assay [8], in assay [9], in [10] and in assay [11] was > 100 µM (inactive) throughout. For the same molecule, the GI50 in [19], in [12], in [14], in [15], in assay [16] and in assay [17] was > 100 µM (inactive) each time.

With `O=C(NCO)NCOCn1c(=O)n(CO)c(=O)n(CO)c1=O`, the GI50 is > 60.8 µM (inactive) in assay [1]; > 100 µM (inactive) in assay [2]; 31 µM (inactive) in assay [3]; 32.1 µM (inactive) in assay [5]; > 100 µM (inactive) in assay [6]; 22.3 µM (inactive) in assay [18]. In addition, the GI50 in assay [7] was 23.4 µM (inactive); in [8], 32.9 µM (inactive); in assay [9], 25.4 µM (inactive); in assay [10], 33.1 µM (inactive); in assay [11], 41.5 µM (inactive); in assay [19], > 100 µM (inactive). The GI50 was > 100 µM (inactive) in assay [12]; 19.1 µM (inactive) in assay [13]; 49.1 µM (inactive) in assay [14]; 21.3 µM (inactive) in assay [15]; 32.1 µM (inactive) in assay [17].

In the case of `COC(=O)c1ccccc1CC1Cc2cc3c(cc2C1)CCC3`, the GI50 is 36.5 µM (inactive) in assay [1]; 42.5 µM (inactive) in [2]; 26.5 µM (inactive) in assay [3]; 50.9 µM (inactive) in assay [4]; 39.5 µM (inactive) in assay [5]; 41.4 µM (inactive) in [6]. The GI50 is 9.75 µM (inactive) in [18]; 18.5 µM (inactive) in [7]; 56.8 µM (inactive) in [8]; 17.3 µM (inactive) in [9]; 48.2 µM (inactive) in assay [10]; 25.8 µM (inactive) in assay [11]. In addition, the GI50 in [19] is 49.4 µM (inactive); in assay [12], 50.4 µM (inactive); in [14], 36.6 µM (inactive); in assay [15] it was 53.5 µM (inactive); in assay [16] it was 47.8 µM (inactive); in assay [17], 23 µM (inactive).

On to `CN(C)CC1CC/C(=C\c2ccc(Cl)cc2)C1=O` (stereo not drawn), for which the GI50 in [1] is 7 µM (inactive); in assay [2], 4.69 µM (inactive); in assay [3], 3.46 µM (inactive); in assay [5], 15.1 µM (inactive); in [6] it was 22.4 µM (inactive); in [18], 0.757 µM (active). Besides, the GI50 is 0.561 µM (active) in [7]; 3.58 µM (inactive) in assay [8]; 0.441 µM (active) in [9]; 17.4 µM (inactive) in assay [10]; 11.9 µM (inactive) in assay [11]; 13.5 µM (inactive) in [19]. Besides, the GI50 is 18.2 µM (inactive) in [12]; 7.5 µM (inactive) in [13]; 12.6 µM (inactive) in assay [14]; 2.61 µM (inactive) in assay [15]; 0.908 µM (active) in [17].

The record behind these values is ChEMBL document CHEMBL1201862, “PubChem BioAssay data set” (2004).
